According to PubChem BioAssay AID328 (DTP/NCI, 2004):
Several values for one entry are separate records, joined by “and”; a condition that tells them apart may be missing. Equal values may be shown once. Toxic doses and inconclusive results are not listed.

System: BDF1 mice, P388 leukemia ip, median survival T/C
Test: NCI In Vivo Anticancer Drug Screen. Data for tumor model P388 Leukemia (intraperitoneal) in B6D2F1 (BDF1) mice
Settings: endpoint: median survival time, higher = longer survival
Summary of the method: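 Read-out is survival of treated animals expressed relative to the vehicle group, as a T/C ratio.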

[1] = dose: 50.0 mg/kg/injection, schedule: Q01DX009 (ip), vehicle: saline with Tween-80
[2] = dose: 100.0 mg/kg/injection, schedule: Q01DX009 (ip), vehicle: saline with Tween-80
[3] = dose: 200.0 mg/kg/injection, schedule: Q01DX009 (ip), vehicle: saline with Tween-80
[4] = dose: 25.0 mg/kg/injection, schedule: Q04DX003 (ip), vehicle: saline with Tween-80
[5] = dose: 50.0 mg/kg/injection, schedule: Q04DX003 (ip), vehicle: saline with Tween-80
[6] = dose: 100.0 mg/kg/injection, schedule: Q04DX003 (ip), vehicle: saline with Tween-80
[7] = dose: 200.0 mg/kg/injection, schedule: Q04DX003 (ip), vehicle: saline with Tween-80
[8] = dose: 400.0 mg/kg/injection, schedule: Q04DX003 (ip), vehicle: saline with Tween-80
[9] = dose: 100.0 mg/kg/injection, schedule: Q01DX001 (ip), vehicle: Klucel (hydroxypropylcellulose) (HPC)
[10] = dose: 200.0 mg/kg/injection, schedule: Q01DX001 (ip), vehicle: Klucel (hydroxypropylcellulose) (HPC)

## COc1cc(/C=C\C(=O)c2ccc(F)cc2)cc(OC)c1OC
dose: 100.0 mg/kg/injection, schedule: Q01DX001 (ip), vehicle: saline with Tween-80
  T/C: 98 % of control
dose: 200.0 mg/kg/injection, schedule: Q01DX001 (ip), vehicle: saline with Tween-80
  T/C: 96 % of control
dose: 400.0 mg/kg/injection, schedule: Q01DX001 (ip), vehicle: saline with Tween-80
  T/C: 100 % of control

## CC(=O)OCC1OC(=O)C(C)N(C)C(=O)CN(C)C(=O)C2C(=O)CC(C)N2C(=O)C(C(C)C)NC(=O)C1NC(=O)c1c2nc3c(C(=O)NC4C(=O)NC(C(C)C)C(=O)N5C(C)CC(OC(C)=O)C5C(=O)N(C)CC(=O)N(C)C(C(C)C)C(=O)OC4C)ccc(C)c3oc-2c(C)c(=O)c1N (configuration not stated)
dose: 0.05 mg/kg/injection, schedule: Q01DX009 (ip), vehicle: saline with Tween-80
  T/C: 154 % of control
dose: 0.1 mg/kg/injection, schedule: Q01DX009 (ip), vehicle: saline with Tween-80
  T/C: 156 % of control
dose: 0.2 mg/kg/injection, schedule: Q01DX009 (ip), vehicle: saline with Tween-80
  T/C: 189 % of control
dose: 0.4 mg/kg/injection, schedule: Q01DX001 (ip), vehicle: saline with Tween-80
  T/C: 153 % of control
dose: 0.4 mg/kg/injection, schedule: Q01DX009 (ip), vehicle: saline with Tween-80
  T/C: 213 % of control
dose: 0.6 mg/kg/injection, schedule: Q04DX003 (ip), vehicle: saline with Tween-80
  T/C: 159 % of control
dose: 0.8 mg/kg/injection, schedule: Q01DX001 (ip), vehicle: saline with Tween-80
  T/C: 159 % of control
dose: 0.8 mg/kg/injection, schedule: Q01DX009 (ip), vehicle: saline with Tween-80
  T/C: 117 % of control
dose: 1.2 mg/kg/injection, schedule: Q04DX003 (ip), vehicle: saline with Tween-80
  T/C: 189 % of control
dose: 1.6 mg/kg/injection, schedule: Q01DX001 (ip), vehicle: saline with Tween-80
  T/C: 159 % of control
dose: 2.4 mg/kg/injection, schedule: Q04DX003 (ip), vehicle: saline with Tween-80
  T/C: 117 % of control
dose: 3.2 mg/kg/injection, schedule: Q01DX001 (ip), vehicle: saline with Tween-80
  T/C: 189 % of control

## Cc1ccc(S(=O)(=O)OCC2C3CCCC2C3)cc1 (configuration not stated)
[1]
  T/C: 101 % of control
[2]
  T/C: 100 % of control
[3]
  T/C: 96 % of control

## C/C(=C\c1ccc(OCc2ccccc2)cc1)C(=O)c1ccc(Cl)cc1
[1]
  T/C: 90 % of control
[2]
  T/C: 87 % of control
[3]
  T/C: 92 % of control

## CCOC(=O)c1ccc(NC(N)=O)cc1
[4]
  T/C: 100 % of control
[5]
  T/C: 102 % of control
[6]
  T/C: 99 % of control

## COc1cc(-c2ccc(N=Nc3c(O)c(C(=O)Nc4ccccc4OC)cc4ccccc34)c(OC)c2)ccc1N=Nc1c(O)c(C(=O)Nc2ccccc2OC)cc2ccccc12
dose: 100.0 mg/kg/injection, schedule: Q01DX005 (ip), vehicle: saline with Tween-80
  T/C: 97 % of control
dose: 200.0 mg/kg/injection, schedule: Q01DX005 (ip), vehicle: saline with Tween-80
  T/C: 92 % of control

## CC(=O)Oc1cc(OCCCc2ccc(F)cc2)cc2c1-c1ccccc1CC2
[6]
  T/C: 99 % of control
[7]
  T/C: 89 % of control
[8]
  T/C: 97 % of control

## CCNC(C)(C)C(S)c1ccc(Cl)s1 (configuration not stated)
dose: 12.5 mg/kg/injection, schedule: Q01DX009 (ip), vehicle: saline with Tween-80
  T/C: 93 % of control
dose: 25.0 mg/kg/injection, schedule: Q01DX009 (ip), vehicle: saline with Tween-80
  T/C: 93 % of control
[4]
  T/C: 101 % of control
[1]
  T/C: 91 % of control and 104 % of control
[5]
  T/C: 91 % of control
dose: 75.0 mg/kg/injection, schedule: Q04DX003 (ip), vehicle: saline with Tween-80
  T/C: 108 % of control
[2]
  T/C: 94 % of control and 109 % of control
[6]
  T/C: 114 % of control
[7]
  T/C: 116 % of control

## CCCCCCCCCCOP(=O)(O)OCCCCCCCCCC
dose: 12.5 mg/kg/injection, schedule: Q01DX009 (ip), vehicle: Klucel (hydroxypropylcellulose) (HPC)
  T/C: 95 % of control
dose: 25.0 mg/kg/injection, schedule: Q01DX009 (ip), vehicle: Klucel (hydroxypropylcellulose) (HPC)
  T/C: 99 % of control
dose: 50.0 mg/kg/injection, schedule: Q01DX009 (ip), vehicle: Klucel (hydroxypropylcellulose) (HPC)
  T/C: 95 % of control

## CN(C)CC/C=C1\c2ccccc2Sc2ccc(Cl)cc21
dose: 3.75 mg/kg/injection, schedule: Q01DX001 (ip), vehicle: Klucel (hydroxypropylcellulose) (HPC)
  T/C: 112 % of control
dose: 7.5 mg/kg/injection, schedule: Q01DX001 (ip), vehicle: Klucel (hydroxypropylcellulose) (HPC)
  T/C: 110 % of control
dose: 15.0 mg/kg/injection, schedule: Q01DX001 (ip), vehicle: Klucel (hydroxypropylcellulose) (HPC)
  T/C: 112 % of control
dose: 30.0 mg/kg/injection, schedule: Q01DX001 (ip), vehicle: Klucel (hydroxypropylcellulose) (HPC)
  T/C: 103 % of control
dose: 60.0 mg/kg/injection, schedule: Q01DX001 (ip), vehicle: Klucel (hydroxypropylcellulose) (HPC)
  T/C: 114 % of control
dose: 120.0 mg/kg/injection, schedule: Q01DX001 (ip), vehicle: Klucel (hydroxypropylcellulose) (HPC)
  T/C: 118 % of control

## O=C(NC(=S)N1CC1)c1ccccc1
[1]
  T/C: 93 % of control
[2]
  T/C: 92 % of control
[3]
  T/C: 104 % of control

## CCCCCCCC(=O)Nc1cc(C(F)(F)F)ccc1Cl
dose: 100.0 mg/kg/injection, schedule: Q04DX003 (ip), vehicle: other
  T/C: 100 % of control
dose: 200.0 mg/kg/injection, schedule: Q04DX003 (ip), vehicle: other
  T/C: 109 % of control
dose: 400.0 mg/kg/injection, schedule: Q04DX003 (ip), vehicle: other
  T/C: 104 % of control

## OC(CCCCC(O)(c1ccccc1)c1ccccc1)(c1ccccc1)c1ccccc1
[9]
  T/C: 105 % of control
[10]
  T/C: 115 % of control
dose: 400.0 mg/kg/injection, schedule: Q01DX001 (ip), vehicle: Klucel (hydroxypropylcellulose) (HPC)
  T/C: 100 % of control

## CC(=O)CC(C)=O.CC(=O)CC(C)=O.c1cc[c]([Sn][c]2ccccc2)cc1
[9]
  T/C: 160 % of control
[10]
  T/C: 166 % of control

## O=C(Nc1ccc(C2=NCCN2)cc1)C1CCC(C(=O)Nc2ccc(C3=NCCN3)cc2)CC1 (configuration not stated)
[6]
  T/C: 150 % of control
[7]
  T/C: 179 % of control
dose: 264.0 mg/kg/injection, schedule: Q04DX003 (ip), vehicle: saline with Tween-80
  T/C: 228 % of control and 200 % of control
[8]
  T/C: 225 % of control and 229 % of control and 240 % of control
dose: 600.0 mg/kg/injection, schedule: Q04DX003 (ip), vehicle: saline with Tween-80
  T/C: 240 % of control and 245 % of control

## Cc1ccc(Sc2cccc3c(C)c4cccc5c4c(c23)C[S+]5c2ccc(C)cc2)cc1 (configuration not stated)
dose: 1.5 mg/kg/injection, schedule: Q04DX003 (ip), vehicle: saline with Tween-80
  T/C: 100 % of control
dose: 3.0 mg/kg/injection, schedule: Q04DX003 (ip), vehicle: saline with Tween-80
  T/C: 104 % of control
dose: 6.0 mg/kg/injection, schedule: Q04DX003 (ip), vehicle: saline with Tween-80
  T/C: 100 % of control

## CCCCOP(=O)(O)CCCC.[Al]
dose: 12.5 mg/kg/injection, schedule: Q04DX003 (ip), vehicle: saline with Tween-80
  T/C: 97 % of control
[4]
  T/C: 97 % of control
[5]
  T/C: 91 % of control

## CN(CCO)C1=C(N2CC2)C(=O)C(N(C)CCO)=C(N2CC2)C1=O
dose: 200.0 micrograms/kg/injection, schedule: Q01DX009 (ip), vehicle: saline
  T/C: 116 % of control
dose: 400.0 micrograms/kg/injection, schedule: Q01DX009 (ip), vehicle: saline
  T/C: 157 % of control
dose: 800.0 micrograms/kg/injection, schedule: Q01DX009 (ip), vehicle: saline
  T/C: 228 % of control

## C#C[C@]1(O)CC[C@H]2[C@@H]3CCc4cc(O)ccc4[C@H]3CC[C@@]21C
dose: 100.0 mg/kg/injection, schedule: Q01DX009 (ip), vehicle: Klucel (hydroxypropylcellulose) (HPC)
  T/C: 95 % of control
dose: 100.0 mg/kg/injection, schedule: Q04DX003 (ip), vehicle: Klucel (hydroxypropylcellulose) (HPC)
  T/C: 104 % of control
dose: 200.0 mg/kg/injection, schedule: Q01DX009 (ip), vehicle: Klucel (hydroxypropylcellulose) (HPC)
  T/C: 87 % of control
dose: 200.0 mg/kg/injection, schedule: Q04DX003 (ip), vehicle: Klucel (hydroxypropylcellulose) (HPC)
  T/C: 104 % of control
dose: 400.0 mg/kg/injection, schedule: Q04DX003 (ip), vehicle: Klucel (hydroxypropylcellulose) (HPC)
  T/C: 95 % of control
